From patent US20190315823A1, “SMALL CATIONIC ANTI-BIOFILM AND IDR PEPTIDES” (priority 2013, published 2019)
Peptide text beside a SMILES is read from it.

Assays:
[1] = test system: Pseudomonas aeruginosa (Pa) biofilm; assay: static abiotic solid surface (microtiter, crystal violet) / Bioflux biofilm inhibition screen; format: cell-based; conditions: peptide 10 μg/ml
Procedure: FIG. 1. Identification of new anti-biofilm peptides active against P. aeruginosa using the microtiter plate screening method with crystal violet staining. […] As a control peptide 1037 was utilized [de la Fuente Nunez et al. 2011].
(§1) Methods of assessment of anti-biofilm activity—Biofilm formation was initially analyzed using a static abiotic solid surface assay as described elsewhere (de la Fuente-Nunez et al., 2012). Dilutions (1/100) of overnight cultures were incubated in BM2 biofilm-adjusted medium [62 mM potassium phosphate buffer (pH 7), 7 mM (NH4)2SO4, 2 mM MgSO4, 10 μM FeSO4, 0.4% (wt/vol) glucose, 0.5% (wt/vol) Casamino Acids], or a nutrient medium such as Luria Broth, in polypropylene microtiter plates (Falcon, United States) in the absence (control) or presence of peptide. Peptide was added at time zero (prior to adding the diluted, overnight cultures) in varying concentrations, and the decrease in biofilm formation was recorded at 22-46 h for most bacteria. Planktonic cells were removed, biofilm cells adhering to the side of the tubes were stained with crystal violet, and absorbance at 595 nm was measured using a microtiter plate reader (Bio-Tek Instruments Inc., United States). Some peptides were screened against two Gram negative organisms, P. aeruginosa and K. pneumoniae using a Bioflux apparatus (AutoMate Scientific, Berkeley, Calif.; http://www.autom8.com/bioflux_biofilm.html), which allows for the high-throughput, real-time analysis of biofilms.

[2] = test system: Klebsiella pneumoniae (Kp) biofilm; format: cell-based; conditions: peptide 10 μg/ml
Procedure: as §1

human PBMC (TNFα) = assay: LPS-induced TNFα production by ELISA; format: cell-based; conditions: P. aeruginosa LPS, 24 hr
Procedure: FIG. 20. Ability of peptides to knockdown pro-inflammatory cytokine TNFα production by human PBMCs in response to bacterial LPS treatment as determined by ELISA after 24 hours.
LPS from P. aeruginosa strain H103 was highly purified free of proteins and lipids using the Darveau-Hancock method. Briefly, P. aeruginosa was grown overnight in LB broth at 37° C. Cells were collected and washed and the isolated LPS pellets were extracted with a 2:1 chloroform:methanol solution to remove contaminating lipids. Purified LPS samples were quantitated using an assay for the specific sugar 2-keto-3-deoxyoctosonic acid (KDO assay) and then resuspended in endotoxin-free water (Sigma-Aldrich).
Human PBMC were obtained as described above and treated with P. aeruginosa LPS (10 or 100 ng/ml) with or without peptides for 24 hr after which supernatants were collected and TNFα assessed by ELISA.

human PBMC (MCP-1) = assay: synergy with poly(I:C) to increase MCP-1 production; format: cell-based; conditions: 10 μg/ml peptide with 20 μg/ml poly(I:C)
Procedure: FIG. 21. Ability of 10 μg/ml of peptides in combination with 20 or 5 μg/ml of the known adjuvant poly inosine:cytosine [poly(I:C)] to synergize to increase MCP-1 production, a known adjuvant property [see Kindrachuk, J., H. Jenssen, M. Elliott, R. Townsend, A. Nijnik, S. F. Lee, V. Gerdts, L. A. Babiuk, S. A. Halperin and R. E. W. Hancock. 2009. A novel vaccine adjuvant comprised of a synthetic innate defence regulator peptide and CpG oligonucleotide links innate and adaptive immunity. Vaccine 27:4662-4671].
It is well accepted that vaccine immunization is best achieved by co-adminstration of an adjuvant. The precise mechanism by which these adjuvants work has eluded immunologists but appears to work in part by upregulating elements of innate immunity that smooth the transition to adaptive (antigen-specific) immunity (Bendelac A and R. Medzhitov. 2002. Adjuvants of immunity: Harnessing innate immunity to promote adaptive immunity J. Exp. Med. 195:F19-F23). Within this concept there are several possible avenues by which adjuvants might work including the attraction of immune cells into the site at which a particular antigen is injected, through e.g. upregulation of chemokines, the appropriate activation of cells when they reach that site, which can be caused by local cell or tissue damage releasing endogenous adjuvants or through specific cell activation by the adjuvants, and the compartmentalization of immune responses to the site of immunization (the so-called “depot” effect). […] 2010. Immunomodulators as adjuvants for vaccines and antimicrobial therapy. Ann. NY Acad. Sci. 1213:46-61].

[3] = test system: human peripheral blood mononuclear cells (MCP-1); assay: MCP-1 chemokine production by ELISA; format: cell-based; conditions: 24 hours of stimulation; lowest peptide concentration 20 μg/ml
Procedure: FIG. 19. High production of anti-infective chemokine MCP-1 by human peripheral blood mononuclear cells treated with peptides, as determined by ELISA after 24 hours of stimulation.
Venous blood (20 ml) from healthy volunteers was collected in Vacutainer® collection tubes containing sodium heparin as an anticoagulant (Becton Dickinson, Mississauga, ON) in accordance with UBC ethical approval and guidelines. Blood was diluted 1:1 with complete RPMI 1640 medium and separated by centrifugation over a Ficoll-Paque® Plus (Amersham Biosciences, Piscataway, N.J., USA) density gradient. White blood cells were isolated from the buffy coat, washed twice in RPMI 1640 complete medium, and the number of peripheral blood mononuclear cells (PBMC) was determined by Trypan blue exclusion. PBMC (5×10^5) were seeded into 12-well tissue culture dishes (Falcon; Becton Dickinson) at 0.75 to 1×10^6 cells/ml at 37° C. in 5% CO2. The above conditions were chosen to mimic conditions for circulating blood monocytes entering tissues at the site of infection via extravasation.
Following incubation of the cells under various treatment regimens, the tissue culture supernatants were centrifuged at 1000×g for 5 min, then at 10,000×g for 2 min to obtain cell-free samples. Supernatants were aliquoted and then stored at −20° C. prior to assay for various chemokines by capture ELISA (eBioscience and BioSource International Inc., CA, USA respectively)

P. aeruginosa biofilms = conditions: biofilms
Procedure: Peptides and various conventional antibiotics were analyzed by checkerboard titration into microtiter trays using CLSI methods (Wiegand, I., K. Hilpert, and R. E. W. Hancock. 2008. Nature Protocols 3:163-175), bacteria added and, after overnight incubation at 37° C., the residual biofilm assessed by the crystal violet method mentioned in the body of the grant, with an A595 of 0.2 considered as 100% biofilm inhibition. The effects of the peptide in reducing the minimal biofilm inhibitory concentration (MBIC) of the antibiotic and vice versa were assessed using the Fractional Inhibitory Concentration (FIC) method whereby ΣFTC=FICA+FICB=(CA/MICA)+(CB/MICB), where MBICA and MBICB are the MBICs of peptide A and antibiotic B alone, respectively, and CA and CB (expressed in μg/ml) are the MICs of the drugs in combination. This conventional clinical microbiology assay is interpreted as follows

[4] = test system: Pseudomonas aeruginosa PA14 and PAO1 and Burkholderia cenocepacia; assay: swarming and surfing motility; format: cell-based
From the text: Motility is strongly involved in the virulence of bacteria since it plays an important role in the attachment of bacteria to surfaces, including those in the body and on indwelling medical devices, and in colonization of these surfaces and biofilm formation. P. aeruginosa is known to utilize at least 4 different types of motility: (a) flagellum-mediated swimming in aqueous environments and at low agar concentrations (<0.3% agar), (b) type IV pilus-mediated twitching on solid surfaces or interfaces, (c) swarming on semi-solid media (0.5-0.7% agar) in poor nitrogen (N) sources such as amino acids (AA) and (d) surfing on low agar concentrations containing mucin.
Swarming motility is a social phenomenon (a complex adaptation) involving the coordinated and rapid movement of bacteria across a semi-solid (viscous) surface, and is widespread among flagellated pathogenic bacteria. […]
This was independent of bacterial killing (antimicrobial peptide action measured by MIC) since these peptides were able to inhibit the swarming of Burkholderia cenocepacia, which as mentioned above is completely resistant to all cationic antimicrobial peptides due to its altered outer membrane.

Molecule | % Biofilm Inhibition Pa [1] | % Biofilm Inhibition Kp [2] | suppression of LPS-induced TNFα (human PBMC (TNFα)) | synergy with poly(I:C) in MCP-1 production (human PBMC (MCP-1)) | MCP-1 induction [3] | further results
CC[C@H](C)[C@H](N)C(=O)N[C@@H](CC(C)C)C(=O)N[C@@H](CCCNC(=N)N)C(=O)N[C@@H](Cc1c[nH]c2ccccc12)C(=O)N1CCC[C@H]1C(=O)N[C@@H](Cc1c[nH]c2ccccc12)C(=O)N1CCC[C@H]1C(=O)N[C@@H](Cc1c[nH]c2ccccc12)C(=O)N[C@@H](CCCNC(=N)N)C(=O)N[C@@H](CCCNC(=N)N)C(=O)N[C@@H](CCCCN)C(N)=O [MX226, reference compound] (H-ILRWPWPWRRK-NH2; N-terminus assumed) | 18% | 18% |  |  |  | 
CC[C@H](C)[C@H](NC(=O)[C@@H](NC(=O)[C@H](CCCNC(=N)N)NC(=O)[C@H](C)NC(=O)[C@@H](NC(=O)[C@H](CCCNC(=N)N)NC(=O)[C@H](CCCCN)NC(=O)[C@H](Cc1ccccc1)NC(=O)[C@@H](N)CCCNC(=N)N)C(C)C)C(C)C)C(=O)N[C@@H](Cc1c[nH]c2ccccc12)C(N)=O [HE12] (H-RFKRVARVIW-NH2; N-terminus assumed) |  |  | strongly suppressed | showed synergy | clearly superior to peptide 1018 | 
CC[C@H](C)[C@H](NC(=O)[C@H](CCCNC(=N)N)NC(=O)[C@@H](NC(=O)[C@@H](NC(=O)[C@H](CC(C)C)NC(=O)[C@H](CCCNC(=N)N)NC(=O)[C@@H](N)C(C)C)[C@@H](C)CC)C(C)C)C(=O)N[C@@H](Cc1c[nH]c2ccccc12)C(=O)N[C@@H](CCCNC(=N)N)C(=O)N[C@@H](CCCNC(=N)N)C(N)=O [HE10] (H-VRLIVRIWRR-NH2; N-terminus assumed) |  |  | strongly suppressed | showed synergy | clearly superior to peptide 1018 | 
CC[C@@H](C)[C@@H](NC(=O)[C@@H](C)NC(=O)[C@@H](CCCNC(=N)N)NC(=O)[C@@H](Cc1c[nH]c2ccccc12)NC(=O)[C@@H](CCC(N)=O)NC(=O)[C@H](N)C(C)C)C(=O)N[C@H](CCCNC(=N)N)C(=O)N[C@@H](C(=O)N[C@H](CCCNC(=N)N)C(=O)N[C@@H](C(=O)N[C@@H](C(=O)N[C@H](CCCNC(=N)N)C(N)=O)[C@H](C)CC)C(C)C)C(C)C [DJK5] | 99.7% | 99.8% |  |  |  | MIC for complete inhibition of Pseudomonas aeruginosa (P. aeruginosa biofilms): 1 µg/mL; Minimal Biofilm Inhibitory Concentration (MBIC) (P. aeruginosa biofilms): 0.5 µg/mL
polymyxin B |  |  |  |  |  | swarming motility ([4]; low concentrations): does not have anti-swarming or anti-surfing activity; surfing motility ([4]; mucin-containing plates): does not have anti-swarming or anti-surfing activity
CC[C@H](C)[C@H](NC(=O)[C@H](CC(C)C)NC(=O)[C@H](CCCNC(=N)N)NC(=O)[C@@H](N)C(C)C)C(=O)N[C@@H](Cc1c[nH]c2ccccc12)C(=O)N[C@@H](C)C(=O)N[C@H](C(=O)N[C@@H](CCCNC(=N)N)C(=O)N[C@H](C(=O)N[C@@H](Cc1c[nH]c2ccccc12)C(=O)N[C@@H](CCCNC(=N)N)C(=O)N[C@@H](CCCNC(=N)N)C(N)=O)[C@@H](C)CC)C(C)C [HE4] (H-VRLIWAVRIWRR-NH2; N-terminus assumed) |  |  | strongly suppressed | showed synergy | clearly superior to peptide 1018 | 
